Here are results for 8 compounds from ChEMBL document CHEMBL5046297, “Discovery of a Colon-Targeted Azo Prodrug of Tofacitinib through the Establishment of Colon-Specific Delivery Systems Constructed by 5-ASA-PABA-MAC and 5-ASA-PABA-Diamine for the Treatment of Ulcerative Colitis” (J Med Chem, 2022).

A short description of data set [1]: Chemical stability of compound in pH 1.2 HCl buffer at 100 uM incubated for 24 hrs by HPLC analysis. To be noted: pH 1.2, 24 h. It is filed as physicochemical.
Data set [2] is described as follows: Chemical stability of compound in pH 4.5 PBS buffer at 100 uM incubated for 24 hrs by HPLC analysis. Type of data set: physicochemical. To be noted: pH 4.5, 24 h.
Data set [3] is described as follows: Chemical stability in simulated gastric fluid assessed as parent compound remaining incubated for 12 hrs by LC-MS/MS analysis. Type of data set: ADME, physicochemical. To be noted: simulated gi fluid.
Data set [4] can be described thus: Chemical stability in simulated intestinal fluid assessed as parent compound remaining incubated for 12 hrs by LC-MS/MS analysis. Type of data set: ADME, physicochemical. To be noted: simulated gi fluid.
Data set [5] can be described thus: Chemical stability of compound in pH 7.4 PBS buffer at 100 uM incubated for 24 hrs by HPLC analysis. It is filed as physicochemical. Particulars: pH 7.4, 24 h.
Data set [6] in a line: Prodrug conversion in Sprague-Dawley rat colon content suspension assessed as tofacitinib release measured upto 8 hrs by HPLC analysis. Type of data set: ADME, tissue-based.
A short description of data set [7]: Prodrug conversion in Sprague-Dawley rat assessed as elimination half life of tofacitinib at 15 mg/kg, po measured up to 12 hrs by LC-MS/MS analysis. Type of data set: ADME, organism-based. To be noted: in vivo.
The nature of data set [8]: Prodrug conversion in BALB/c mouse colon assessed as tofacitinib AUC(0 to 12 hrs) at 15 mg/kg, po measured upto 12 hrs by LC-MS/MS analysis. Type of data set: ADME, organism-based. Particulars: in vivo. More on the design: route oral, dose 15 mg/kg, time <=12.
A short description of data set [9]: Prodrug conversion in BALB/c mouse plasma assessed as tofacitinib AUC(0 to 12 hrs) at 15 mg/kg, po measured upto 12 hrs by LC-MS/MS analysis. Type of data set: ADME, organism-based. More on the design: route oral, dose 15 mg/kg, time <=12. Particulars: in vivo.
Data set [10] in a line: Prodrug conversion in Sprague-Dawley rat assessed as AUC (0 to infinity) of tofacitinib at 15 mg/kg, po measured up to 12 hrs by LC-MS/MS analysis. Type of data set: ADME, organism-based. More on the design: route oral, dose 15 mg/kg, time <=12. Particulars: in vivo.
Data set [11] in a line: Prodrug conversion in BALB/c mouse jejunum assessed as tofacitinib AUC(0 to 12 hrs) at 15 mg/kg, po measured upto 12 hrs by LC-MS/MS analysis. Particulars: in vivo. More on the design: route oral, dose 15 mg/kg, time <=12. It is filed as ADME, organism-based.
Data set [12] can be described thus: Prodrug conversion in BALB/c mouse ileum assessed as tofacitinib AUC(0 to 12 hrs) at 15 mg/kg, po measured upto 12 hrs by LC-MS/MS analysis. It is filed as ADME, organism-based. More on the design: route oral, dose 15 mg/kg, time <=12. Particulars: in vivo.
The nature of data set [13]: Prodrug conversion in Sprague-Dawley rat assessed as Tmax of tofacitinib at 15 mg/kg, po measured up to 12 hrs by LC-MS/MS analysis. It is filed as ADME, organism-based. To be noted: in vivo.
Data set [14] is described as follows: Prodrug conversion in Sprague-Dawley rat assessed as Cmax of tofacitinib at 15 mg/kg, po measured up to 12 hrs by LC-MS/MS analysis. Type of data set: ADME, organism-based. More on the design: route oral, dose 15 mg/kg, time <=12. Particulars: in vivo.
Data set [15] in a line: Prodrug conversion in BALB/c mouse duodenum assessed as tofacitinib AUC(0 to 12 hrs) at 15 mg/kg, po measured upto 12 hrs by LC-MS/MS analysis. It is filed as ADME, organism-based. More on the design: route oral, dose 15 mg/kg, time <=12. Particulars: in vivo.

The structures appear in SMILES notation.

Turning to `Cc1cc(COC(=O)N(C)CCN(C)C(=O)n2ccc3c(N(C)[C@H]4CN(C(=O)CC#N)CC[C@H]4C)ncnc32)ccc1/N=N/c1ccc(O)c(C(=O)O)c1`, the Stability result in data set [1], in data set [2], in data set [3], in data set [4] and in data set [5] was “Stable” each time. For the same compound, in data set [6], the Drug metabolism was determined as 1.6 mmol/L/h.

`C[C@@H]1CCN(C(=O)CC#N)C[C@@H]1N(C)c1ncnc2[nH]ccc12.O=C(O)CC(O)(CC(=O)O)C(=O)O` [TOFACITINIB CITRATE]: the “beta t1/2” value in data set [7] stood at 3.94 h. Besides, the AUC (as a rule, the area under the concentration-time curve, a measure of exposure) in data set [8] came out at 167 µM·h; in data set [9], 7.1 µM·h; in [10], 70.66 µM·h; in data set [11], 43 µM·h; in data set [12], 50.3 µM·h; in data set [15], 67 µM·h. Further, the Tmax (in general, the time from dosing to the highest level) in [13] was 0.42 h. Besides, in [14], the Cmax – broadly, the maximum level reached in the sampled fluid or tissue – is 54.9 µM.

On to `Cc1cc(/N=N/c2ccc(O)c(C(=O)O)c2)ccc1COC(=O)N(C)CCN(C)C(=O)n1ccc2c(N(C)[C@H]3CN(C(=O)CC#N)CC[C@H]3C)ncnc21`, for which the Stability result in data set [1], in data set [2], in data set [3], in [4] and in [5] was “Stable” throughout. The Drug metabolism in data set [6] stood at 2.72 mmol/L/h.

For `C[C@@H]1CCN(C(=O)CC#N)C[C@@H]1N(C)c1ncnc2c1ccn2C(=O)N(C)CCN(C)C(=O)OCc1ccc(/N=N/c2ccc(O)c(C(=O)O)c2)c(Cl)c1`, the Stability entry in [1], in data set [2], in data set [3], in data set [4] and in data set [5] was “Stable” throughout. Besides, in [6], the Drug metabolism stood at 2.93 mmol/L/h.

Regarding `COc1cc(COC(=O)N(C)CCN(C)C(=O)n2ccc3c(N(C)[C@H]4CN(C(=O)CC#N)CC[C@H]4C)ncnc32)ccc1/N=N/c1ccc(O)c(C(=O)O)c1`, the Stability entry in data set [1], in data set [2], in [3], in data set [4] and in data set [5] was “Stable” in each case. For the same compound, the Drug metabolism in data set [6] was 2.46 mmol/L/h.

In the case of `C[C@@H]1CCN(C(=O)CC#N)C[C@@H]1N(C)c1ncnc2c1ccn2C(=O)N(C)CCN(C)C(=O)OCc1ccc(/N=N/c2ccc(O)c(C(=O)O)c2)cc1`, the Stability entry in data set [1], in data set [2], in data set [3], in data set [4] and in data set [5] was “Stable” each time. Further, in data set [6], the Drug metabolism is 2.114 mmol/L/h.

Turning to `COc1cc(/N=N/c2ccc(O)c(C(=O)O)c2)ccc1COC(=O)N(C)CCN(C)C(=O)n1ccc2c(N(C)[C@H]3CN(C(=O)CC#N)CC[C@H]3C)ncnc21`, the Stability result in [1], in data set [2], in [3], in data set [4] and in data set [5] was “Stable” each time. Moreover, in data set [6], the Drug metabolism is 2.44 mmol/L/h.

In the case of `C[C@@H]1CCN(C(=O)CC#N)C[C@@H]1N(C)c1ncnc2c1ccn2CNC(=O)OCc1ccc(/N=N/c2ccc(O)c(C(=O)O)c2)cc1`, the Stability result in data set [1], in data set [2], in data set [3], in [4] and in data set [5] was “Stable” in each case. Besides, the Drug metabolism in [6] was 2.87 mmol/L/h.
